Test results: ChEMBL document CHEMBL1201862, “PubChem BioAssay data set” (2004)
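Briefly, cells in 96-well plates were exposed to five compound concentrations for 48 h, and endpoints were estimated by linear interpolation. GI50 marks 50% less growth.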 Activity calls are given as the source filed them. Cut-off read from the data, not from the text of the source: active = GI50 up to about 1.1 µM and inactive = higher.

How the values were obtained:
Test in all cases: growth of human tumour cells (NCI), 48 h
DMS-114 = test system: DMS-114
DMS-273 = test system: DMS-273
KM-20L2 = test system: KM-20L2
LXFL 529 = test system: LXFL 529
XF498 = test system: XF498
DLD-1 = test system: DLD-1
HOP-18 = test system: HOP-18
RXF 631 = test system: RXF 631
SNB-78 = test system: SNB-78

Structure (SMILES)	GI50 (DMS-114)	GI50 (DMS-273)	GI50 (KM-20L2)	GI50 (LXFL 529)	GI50 (XF498)	GI50 (DLD-1)	GI50 (HOP-18)	GI50 (RXF 631)	GI50 (SNB-78)
CC[n+]1c(/C=C/c2cc(C(=O)OC)n3c2sc2ccccc23)sc2ccccc21	19.2 µM (inactive)	17.6 µM (inactive)	17.8 µM (inactive)	13.8 µM (inactive)	13.3 µM (inactive)				
O=c1ccccc2cccc(O)c12	> 100 µM (inactive)	> 100 µM (inactive)	> 100 µM (inactive)	> 100 µM (inactive)	> 100 µM (inactive)	> 100 µM (inactive)	> 100 µM (inactive)	> 100 µM (inactive)	> 100 µM (inactive)
C=CC1=C(C)/C(=C/C2=NC(=C\c3[nH]c(CC4NC(=O)C(C)/C4=C\C)c(C)c3CCC(=O)O)/C(CC(=O)O)=C2C)NC1=O (centres undefined)	> 100 µM (inactive)		> 100 µM (inactive)	> 100 µM (inactive)	> 100 µM (inactive)	> 100 µM (inactive)	> 100 µM (inactive)	> 100 µM (inactive)	> 100 µM (inactive)
COc1cc(C2C(Cl)C(=O)N2NC(=O)c2ccc(N)cc2)ccc1O (centres undefined)		47.5 µM (inactive)	63.7 µM (inactive)	16.6 µM (inactive)	31.3 µM (inactive)	29.4 µM (inactive)			44.2 µM (inactive)
Cc1ccc(NC(=O)/C(=N/NC(=O)C[N+](C)(C)C)c2nc3ccccc3nc2O)cc1	> 100 µM (inactive)	> 100 µM (inactive)	> 100 µM (inactive)	> 100 µM (inactive)		> 100 µM (inactive)	> 100 µM (inactive)	> 100 µM (inactive)	> 100 µM (inactive)
COC(=O)[C@]12CSCN1C(=O)C(C(C)=O)=NN2C(=O)[C@](OC)(c1ccccc1)C(F)(F)F	> 100 µM (inactive)	> 100 µM (inactive)	> 100 µM (inactive)	> 100 µM (inactive)	> 100 µM (inactive)				> 100 µM (inactive)
CN1C(c2ccccc2)CC(O)CC1c1ccccc1 (centres undefined)	> 100 µM (inactive)	> 100 µM (inactive)	> 100 µM (inactive)	> 100 µM (inactive)		> 100 µM (inactive)			> 100 µM (inactive)
Cc1cc2c(c(C(N)=O)c1C)-c1cccc(Cl)c1C2=O	> 100 µM (inactive)	> 100 µM (inactive)	> 100 µM (inactive)	> 100 µM (inactive)	> 100 µM (inactive)	> 100 µM (inactive)		> 100 µM (inactive)	> 100 µM (inactive)
N#Cc1cc([N+](=O)[O-])ccc1NC(=O)/C(=N/N)C(C(=O)c1ccc(Cl)c(Cl)c1)C1OC(=O)c2ccccc21 (centres undefined)	28.4 µM (inactive)			43 µM (inactive)		35 µM (inactive)			75 µM (inactive)
O=C(Nc1ccc(Cl)cc1)/C(Cc1cccc[n+]1[O-])=N\Nc1ccc([N+](=O)[O-])cc1[N+](=O)[O-]	> 100 µM (inactive)	> 100 µM (inactive)	> 100 µM (inactive)	> 100 µM (inactive)		> 100 µM (inactive)		> 100 µM (inactive)	> 100 µM (inactive)
COc1cc(-c2[nH]ccc2Cl)oc1C1=C2N=C3C=C2C(C(C)C)C1CCCCCCCC3 (centres undefined)	0.485 µM (active)	0.589 µM (active)	0.308 µM (active)	0.515 µM (active)	1.38 µM (inactive)	0.975 µM (active)	0.332 µM (active)		2.83 µM (inactive)
COc1ccc(OCC(=O)O)c2c1CCC(C)C2=O (centres undefined)	> 100 µM (inactive)	> 100 µM (inactive)	> 100 µM (inactive)		> 100 µM (inactive)	> 100 µM (inactive)	94.6 µM (inactive)	> 100 µM (inactive)	> 100 µM (inactive)
CC(=O)OC(C)(C)C1CCC(C)(C(O)COc2ccc(CCNC(=O)c3ccccc3)cc2)O1 (centres undefined)	12.5 µM (inactive)	33.3 µM (inactive)	73.1 µM (inactive)	25.1 µM (inactive)	10.5 µM (inactive)	31.5 µM (inactive)	> 100 µM (inactive)		48.3 µM (inactive)
CN(C)c1ccc(/C=N/C23CC4CC(CC(C4)C2)C3)cc1	> 100 µM (inactive)	> 100 µM (inactive)	> 100 µM (inactive)						> 100 µM (inactive)
O=c1c(NO)c([N+](=O)[O-])cnn1-c1ccccc1	15.8 µM (inactive)	3.26 µM (inactive)	7.19 µM (inactive)	1.76 µM (inactive)	3.41 µM (inactive)	3.6 µM (inactive)	22.1 µM (inactive)	2.48 µM (inactive)	16.9 µM (inactive)
Cc1ccc(NC(=O)CC2C(=O)Nc3ccccc3S2(=O)=O)cc1C (centres undefined)	> 100 µM (inactive)	> 100 µM (inactive)	> 100 µM (inactive)	> 100 µM (inactive)	> 100 µM (inactive)	> 100 µM (inactive)		> 100 µM (inactive)	> 100 µM (inactive)
Cc1c(-c2nnc(-c3ccccc3)o2)c(=O)n(-c2ccccc2)n1C	> 100 µM (inactive)	> 100 µM (inactive)	> 100 µM (inactive)	> 100 µM (inactive)	> 100 µM (inactive)	> 100 µM (inactive)	> 100 µM (inactive)		> 100 µM (inactive)
CC(=O)OCC1OC(Sc2ccccn2)C=CC1OC(C)=O (centres undefined)	> 100 µM (inactive)	> 100 µM (inactive)	> 100 µM (inactive)	> 100 µM (inactive)	> 100 µM (inactive)	> 100 µM (inactive)	> 100 µM (inactive)		
Brc1ccc(N2C[N+](c3ccc(Br)cc3)=NC(c3ccccc3)=N2)cc1.[O-][Cl+3]([O-])([O-])[O-]	25.1 µM (inactive)	50.1 µM (inactive)	70.5 µM (inactive)	45.2 µM (inactive)	> 100 µM (inactive)	59.8 µM (inactive)	> 100 µM (inactive)		> 100 µM (inactive)
CN1C2(c3ccccc3)c3c(-c4ccccc4)sc(-c4ccccc4)c3C1(c1ccccc1)C1C(=O)N(c3ccccc3)C(=O)C12 (centres undefined)	> 100 µM (inactive)	> 100 µM (inactive)	> 100 µM (inactive)	> 100 µM (inactive)	> 100 µM (inactive)	> 100 µM (inactive)	> 100 µM (inactive)	> 100 µM (inactive)	> 100 µM (inactive)
CS(=O)(=O)c1ccc(-c2cc(-c3ccc(S(C)(=O)=O)cc3)[n+](-c3cc(-c4ccccc4)c([O-])c(-c4ccccc4)c3)c(-c3ccc(S(C)(=O)=O)cc3)c2)cc1	> 100 µM (inactive)	> 100 µM (inactive)	> 100 µM (inactive)	> 100 µM (inactive)	> 100 µM (inactive)		> 100 µM (inactive)	> 100 µM (inactive)	> 100 µM (inactive)
Cc1cc(N)c(C)c2c1[nH]c1ccc(O)cc12	> 10 µM (inactive)	> 100 µM (inactive)			56.4 µM (inactive)		> 100 µM (inactive)		> 100 µM (inactive)
CN(C)/C=N\c1cc[nH]c(=O)n1	> 100 µM (inactive)	> 100 µM (inactive)	> 100 µM (inactive)	> 100 µM (inactive)	> 100 µM (inactive)	> 100 µM (inactive)	> 100 µM (inactive)	> 100 µM (inactive)	> 100 µM (inactive)
COc1cc([C@H]2c3cc4c(cc3O[C@@]3(O)COC(=O)[C@@H]23)OCO4)cc(OC)c1OC	> 100 µM (inactive)	> 100 µM (inactive)	> 100 µM (inactive)		> 100 µM (inactive)	> 100 µM (inactive)	> 100 µM (inactive)	> 100 µM (inactive)	> 100 µM (inactive)
